Assay results as given in publication PMC10138721, “Investigation of the Compatibility between Warheads and Peptidomimetic Sequences of Protease Inhibitors—A Comprehensive Reactivity and Selectivity Study” (International Journal of Molecular Sciences, 2023).
Entries after “also recorded” stand apart in the source; their conditions may differ. Where two headings read alike, the source gives them in different places.

Key:
proteasome β5-subunit = target: T1, proteasome β5-subunit (Homo sapiens, UniProt P20618+P28074); test: Fluorometric inhibition assay, proteasome β5-subunit; type: biochemical
T1 construct: purchased Enzo Life sciences

human cathepsin S (CatS) = target: T2, human cathepsin S (CatS) (Homo sapiens, UniProt P25774); test: Fluorometric inhibition assay, cathepsin S; type: biochemical
T2 construct: purchased Sigma Aldrich

rhodesain = rhodesain (Trypanosoma brucei rhodesiense, UniProt Q95PM0); test: Fluorometric inhibition assay, rhodesain; type: biochemical; conditions: for Ki: Rhodesain
[1] = target: T3, urokinase-type plasminogen activator (uPA) (Homo sapiens, UniProt P00749); test: Fluorometric inhibition assay, uPA; type: biochemical
T3 construct: purchased Sigma Aldrich

[2] = target: SARS-CoV-2 main protease (M^pro) (Severe acute respiratory syndrome coronavirus 2, UniProt P0DTD1); test: Fluorometric (FRET) inhibition assay, SARS-CoV-2 M^pro; type: biochemical; conditions: initial screen at 20 µM, cut-off 80% inhibition
[3] = Reactivity test of warhead probes with PhEtSH without base (NMR/LC-MS); type: physicochemical; conditions: non-basic conditions; for reactivity with PhEtSH (protonated thiol), in words: DMSO-d6, up to 240 min
From the text: (§1) To investigate the reactivity between the different warheads towards the three classes of proteases (serine, threonine and cysteine proteases), their behavior in model systems under the same reaction conditions (solvent, nucleophile and base) using either NMR or LC-MS analysis was investigated. We used reactivity probes with a Boc-L-Leu-(warhead) sequence. Leucin was chosen as a P1 amino acid to minimize influences of the side chain and due to synthetic accessibility. 2-Phenylethanethiol was used as a model nucleophile to mimic the thiol moiety of cysteine proteases, and sodium ethoxide was used as a serine/threonine replacement. DMSO-d6 was used as solvent. Under these conditions, the nucleophile is deprotonated, simulating the activated serine or threonine in the catalytic triad of serine and threonine proteases, while ethanol as protonated alcohol species turned out to be unreactive in preliminary test reactions. The reactivity tests using 2-phenylethanthiol were carried out in the presence and absence of triethylamine as a base. This allowed for a reactivity comparison of the warheads towards protonated and deprotonated nucleophilic thiol species. Generating a deprotonated thiol species in the presence of triethylamine simulates the deprotonated cysteine in the catalytic dyad of cysteine proteases. Scheme 8 illustrates the reaction of the reactivity assay with both model nucleophiles and the vinyl sulfone moiety 109 as an example.
(§2) The reactivity tests of all Michael acceptors, 109, 110, 111 and 112, the α-ketobenzothiazole 115 and nitrile 117 were investigated using an NMR-based analysis method, while the β-lactam 108 reactivity was investigated via LC-MS, due to its lack of proton signals, which could be used for evaluation of the reactivity in the ^1H-NMR studies, and the irreversible reaction mechanism, which allowed the LC-MS analysis. […] Formation of the expected adducts with the nitrile 117 (PhEtSH/PhEtS^–/EtONa), the α-ketobenzothiazole 115 (PhEtSH/PhEtS^–) and the nitroalkene 111 (EtONa) could not be observed. This may have been due to the covalent reversible reaction mechanism of the nitrile and α-ketobenzothiazole and the overall difficult ionization of the specific compounds by an electron spray ionization mass spectrometer.
(§3) Method A (NMR): ^1H-NMR spectra were recorded for the respective warhead and nucleophile mixture, before the addition of the nucleophile (0 min) and after 5, 30, 60, 120 and 240 min reaction time. For quantification, the double bond-signals (doublet/doublet of doublets, around 7.4–6.7 ppm) of the Michael acceptors were integrated relative to 1,3-dioxolane as an internal standard. The acetal CH2 signal of the internal standard at 5.3 ppm was used as a reference.
(§4) The α-ketobenzothiazole 115 and nitrile 117 were similarly analyzed by ^13C-NMR. Therefore, the corresponding ^13C-leucin derivates were synthesized (Scheme 7). Quantifications of the reactions were carried out by using the integral of the carbonyl carbon atom signal at 195 ppm for the α-ketobenzothiazole and 120 ppm for the nitrile moiety. The reference signal of DMSO-d6 was set to 39.52 ppm.
(§5) Method B (LC-MS): The reactivity of the β-lactam test compound 108 with the nucleophiles was investigated using an LC-MS-based method. To quantify the conversion, the AUCs were determined at 254 nm. In Figure 3, the UV spectra of the test reaction of the β-lactam 108 with EtONa are shown exemplarily.
(§6) The β-lactam 108 (0.07 mmol, 1eq) was solved in DMSO-d6 (0.5 mL). The reaction was measured in time intervals before (0 min), 5, 30, 60, 120 and 240 mins after the addition of the corresponding nucleophile (PhEtSH/EtONa, 2 eq) in presence of Et3N (2 eq) or not. In case of PhEtSH as the nucleophile the reaction got quenched by pouring 10 µL of the reaction mixture into a solution of 25 mM TRIS (pH 7.00) and 27 mM maleimide in a 1:1 mixture of acetonitrile/H2O (990 µL). For the reaction with EtONa as the nucleophile, the reaction solution […]

[4] = Reactivity test of warhead probes with PhEtSH + Et3N (NMR/LC-MS); type: physicochemical; conditions: for reactivity with PhEtSH + Et3N (deprotonated thiol), in words: DMSO-d6, up to 240 min; for time to full conversion with PhEtSH + Et3N: DMSO-d6; for maximum conversion with PhEtSH + Et3N: DMSO-d6, after 240 min
From the text: as §1, §2, §3, §4, §5, §6

[5] = Reactivity test of warhead probes with EtONa (NMR/LC-MS); type: physicochemical; conditions: for time to full conversion with EtONa: DMSO-d6; for reactivity with EtONa, in words: DMSO-d6, up to 240 min
From the text: as §1, §2, §3, §4, §5, §6

[6] = initial screen at 20 µM, cut-off 80% inhibition

T2 sequence (P25774 115-331): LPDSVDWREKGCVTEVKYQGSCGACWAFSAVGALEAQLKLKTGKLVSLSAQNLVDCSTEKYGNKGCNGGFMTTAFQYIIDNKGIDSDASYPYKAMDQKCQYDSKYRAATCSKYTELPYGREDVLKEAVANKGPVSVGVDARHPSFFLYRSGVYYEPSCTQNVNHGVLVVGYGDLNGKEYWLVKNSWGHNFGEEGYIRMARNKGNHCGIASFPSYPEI
Chain of rhodesain (Q95PM0 entry or part of it): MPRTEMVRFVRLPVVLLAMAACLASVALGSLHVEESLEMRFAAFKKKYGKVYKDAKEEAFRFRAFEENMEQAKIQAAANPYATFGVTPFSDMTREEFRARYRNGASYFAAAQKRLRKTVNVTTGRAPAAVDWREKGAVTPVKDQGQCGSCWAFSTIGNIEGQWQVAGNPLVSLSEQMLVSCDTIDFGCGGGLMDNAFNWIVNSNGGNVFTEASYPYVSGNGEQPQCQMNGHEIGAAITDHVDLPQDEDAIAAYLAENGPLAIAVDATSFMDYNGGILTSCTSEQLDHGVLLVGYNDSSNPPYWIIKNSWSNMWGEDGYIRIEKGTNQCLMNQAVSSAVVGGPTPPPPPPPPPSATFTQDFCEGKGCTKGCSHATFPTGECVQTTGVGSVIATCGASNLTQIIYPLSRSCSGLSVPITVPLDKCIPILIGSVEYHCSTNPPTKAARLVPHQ

CC(C)C[C@@H](/C=C(\F)S(=O)(=O)c1ccccc1)NC(=O)[C@H](Cc1ccccc1)NC(=O)c1cnccn1 [compound 55]
inhibition of the proteasome β5-subunit, in words (proteasome β5-subunit): None
Ki (human cathepsin S (CatS); Ki, CatS): 934 ± 138 nM
Ki (human cathepsin S (CatS); pKi, Cathepsin S inhibition): 1000 nM
Ki (rhodesain): 462 ± 39 nM

CC(C)C[C@@H](C=C[N+](=O)[O-])NC(=O)[C@H](Cc1ccccc1)NC(=O)c1cnccn1 [compound 59]
inhibition of the proteasome β5-subunit, in words (proteasome β5-subunit): None
Ki (human cathepsin S (CatS); Ki, CatS): 619 ± 54 nM
Ki (rhodesain): 2 ± 5 nM

CC(C)CC(NC(=O)C(Cc1ccccc1)NC(=O)c1cnccn1)C(=O)c1nc2ccccc2s1 (stereo not drawn) [compound 62]
inhibition of the proteasome β5-subunit, in words (proteasome β5-subunit): None and no inhibition

CCOC(=O)/C=C/C(=O)[C@H](CC(C)C)NC(=O)[C@H](Cc1ccccc1)NC(=O)c1cnccn1 [compound 68]
inhibition of the proteasome β5-subunit, in words (proteasome β5-subunit): None
activity against CatS, in words (human cathepsin S (CatS)): essentially inactive
Ki (rhodesain): 9 ± 1 nM
kinact (rhodesain; read-out: kinact, Rhodesain): 0.006 ± 0.001 s⁻¹

CC(C)C[C@H](NC(=O)[C@H](Cc1ccccc1)NC(=O)c1cnccn1)C(=O)N[C@H]1CN(c2ccccc2)C1=O [compound 72]
inhibition of the proteasome β5-subunit, in words (proteasome β5-subunit): None and did not inhibit

CC(C)CC(C#N)NC(=O)C(Cc1ccccc1)NC(=O)c1cnccn1 (stereo not drawn) [compound 74]
inhibition of the proteasome β5-subunit, in words (proteasome β5-subunit): None and no inhibition and missing inhibition
Ki (human cathepsin S (CatS); Ki, CatS): 238 ± 23 nM
Ki (rhodesain): 560 ± 267 nM

COC(=O)[C@H](C[C@@H]1CCNC1=O)NC(=O)OC(C)(C)C [compound 85]
inhibition of the proteasome β5-subunit, in words (proteasome β5-subunit; [6]): None

CC(=O)NCC(=O)NC(C(=O)N[C@@H](C)C(=O)N[C@@H](CCCNC(=N)N)C(=O)c1nc2ccccc2s1)[C@H](C)O (stereo partly drawn) [compound 103]
Ki ([1]; Table S1; a) calculated from IC50 with Cheng–Prusoff, n.a. = not active (<80% inhibition at 20 µM), read-out: Ki, uPA): 141 ± 27 nM
Ki ([1]; calculated from Ki, –log10(Ki/M), read-out: pKi, uPA inhibition (converted)): 126 nM
activity against uPA, in words [1, 6]: active; also recorded: displayed inhibitory activity
inhibition of the proteasome β5-subunit, in words (proteasome β5-subunit; [6]): not inhibited
activity against CatS, in words (human cathepsin S (CatS); [6]): not inhibited; also recorded: not active at 20 µM
activity against M^pro, in words [2]: not inhibited
activity against rhodesain, in words (rhodesain; [6]): not inhibited; also recorded: inactive

CC(C)C[C@H](NC(=O)OC(C)(C)C)C(=O)N[C@H]1CN(c2ccccc2)C1=O [compound 108]
reactivity with PhEtSH (protonated thiol), in words [3]: conversion was not observed
reactivity with PhEtSH + Et3N (deprotonated thiol), in words [4]: Every warhead except the β-lactam 108 and the nitrile 117 reacted
time to full conversion with EtONa [5]: 60 min
reactivity with EtONa, in words [5]: complete conversion; also recorded: strong reactivity

CC(C)CC(/C=C/S(=O)(=O)c1ccccc1)NC(=O)OC(C)(C)C (stereo not drawn) [compound 109]
reactivity with PhEtSH (protonated thiol), in words [3]: conversion was not observed; also recorded: missing reactivity
time to full conversion with PhEtSH + Et3N [4]: 60 min
reactivity with PhEtSH + Et3N (deprotonated thiol), in words [4]: high reactivity
conversion with EtONa ([5]; DMSO-d6, after 240 min): 70%

CC(C)CC(/C=C(\F)S(=O)(=O)c1ccccc1)NC(=O)OC(C)(C)C (stereo not drawn) [compound 110]
reactivity with PhEtSH (protonated thiol), in words [3]: conversion was not observed; also recorded: missing reactivity
maximum conversion with PhEtSH + Et3N [4]: 86%
reactivity with PhEtSH + Et3N (deprotonated thiol), in words [4]: high reactivity
reactivity with EtONa, in words [5]: No conversion

CC(C)CC(/C=C/[N+](=O)[O-])NC(=O)OC(C)(C)C (stereo not drawn) [compound 111]
reactivity with PhEtSH (protonated thiol), in words [3]: conversion was not observed
maximum conversion with PhEtSH + Et3N [4]: 82%
reactivity with PhEtSH + Et3N (deprotonated thiol), in words [4]: high reactivity
conversion with EtONa ([5]; DMSO-d6, after 240 min): 84%

CCOC(=O)/C=C/C(=O)C(CC(C)C)NC(=O)OC(C)(C)C (stereo not drawn) [compound 112]
conversion with PhEtSH ([3]; DMSO-d6, after 240 min): 92%
reactivity with PhEtSH (protonated thiol), in words [3]: did indeed react; also recorded: high reactivity
time to full conversion with PhEtSH + Et3N [4]: 5 min
reactivity with PhEtSH + Et3N (deprotonated thiol), in words [4]: high reactivity
time to full conversion with EtONa [5]: 5 min
reactivity with EtONa, in words [5]: unspecific conversion

CC(C)CC(NC(=O)OC(C)(C)C)[13C](=O)c1nc2ccccc2s1 (stereo not drawn) [compound 115]
conversion with PhEtSH ([3]; DMSO-d6, after 240 min): 18%
reactivity with PhEtSH (protonated thiol), in words [3]: did indeed react
conversion with PhEtSH + Et3N ([4]; DMSO-d6, time not stated): around 30%
reactivity with PhEtSH + Et3N (deprotonated thiol), in words [4]: strong reactivity
maximum conversion with EtONa ([5]; DMSO-d6, maximum reached after 60 min): 37%
reactivity with EtONa, in words [5]: strong reactivity

CC(C)C[C@H](NC(=O)OC(C)(C)C)[13C](N)=O [compound 116]
time until equilibrium was reached with PhEtSH ([3]; DMSO-d6): 5 min

CC(C)C[C@@H]([13C]#N)NC(=O)OC(C)(C)C [compound 117]
conversion with PhEtSH ([3]; DMSO-d6, time not stated): 7%
reactivity with PhEtSH (protonated thiol), in words [3]: did indeed react
reactivity with PhEtSH + Et3N (deprotonated thiol), in words [4]: Every warhead except the β-lactam 108 and the nitrile 117 reacted; also recorded: no reaction
conversion with EtONa ([5]; DMSO-d6, at 5 min): 10%
